# Test system: methicillin-resistant Staphylococcus aureus (MRSA) (ATCC BAA-44)
# Test: MIC assay, broth microdilution with resazurin
# Type: cell-based
# Settings: Mueller Hinton broth, 20-44 h at 37° C.
# Experimental: Antimicrobial assay antimicrobial activities of the polymers were determined by the minimal inhibitory concentration (MIC) assay. MIC of Mycobacterium smegmatis (ATCC 700084), Shigella flexneri (ATCC 9199), Staphylococcus aureus (ATCC 14775) and methicillin-resistant Staphylococcus aureus (MRSA) (ATCC BAA-44) were determined by the standard broth microdilution method with slight modification. In brief, different bacteria were grown in either Mueller Hinton broth (MHB) or 7H9 broth (M. smegmatis) overnight at 37° C. Next day, the cells were first OD600 adjusted to 0.1 and then further diluted 1:100 in the respective media and 50 μL (˜10^5 CFU) is added to 96 well-microplate wells containing 50 μL serial dilutions of the polymers. The plates were incubated for 20-44 h at 37° C. MIC is defined as the lowest concentration of the polymer that inhibits the visual growth of the bacteria. To aid in determining the visual growth of bacteria, resazurin, a red-ox dye is added to the wells at a final concentration of 0.02% and incubated for 4-8 h at 37° C. In the presence of viable cells, resazurin (blue) is reduced to resorfurin (pink) along with an increase in fluorescence. MIC was calculated as the lowest concentration of the polymer that prevented the color change and reduced the fluorescence (Ex 540, Em 590 nm) by 90% when compared to the control wells containing no inhibitor. […]
smiles,measurement,value
O=C(O)c1cn(C2CC2)c2cc(N3CCNCC3)c(F)cc2c1=O [Ciprofloxacin],MIC MRSA,20 µg/mL
